Test results from ChEMBL document CHEMBL1201862, “PubChem BioAssay data set” (2004).
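48-hour exposure; five concentrations; linearly interpolated endpoints. The concentration for 50% growth inhibition is given as GI50.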 Activity calls are given as the source filed them. Rule as the data show it: active = GI50 up to about 1.1 µM and inactive = higher.

Tests used:
Test in all cases: DTP human tumour cell line panel, 48 h
[1] = tested on: COLO 205
[2] = tested on: UO-31
[3] = tested on: NCI-H23
[4] = tested on: HOP-62
[5] = tested on: HL-60
[6] = tested on: HCT-15
[7] = tested on: SN12C
[8] = tested on: EKVX
[9] = tested on: Malme-3M
[10] = tested on: SF-295
[11] = tested on: UACC-62
[12] = tested on: M14
[13] = tested on: OVCAR-4
[14] = tested on: CAKI-1
[15] = tested on: U-251
[16] = tested on: RXF 393
[17] = tested on: HCT-116
[18] = tested on: PC-3
[19] = tested on: MCF7
[20] = tested on: DU-145

Row | Compound | GI50 [1] | GI50 [2] | GI50 [3] | GI50 [4] | GI50 [5] | GI50 [6] [µM] | GI50 [7] | GI50 [8] | GI50 [9] | GI50 [10] | GI50 [11] | GI50 [12] | GI50 [13] | GI50 [14] | GI50 [15] | GI50 [16] | GI50 [17] | GI50 [18] | GI50 [19] | GI50 [20]
1 | CCn1c(=O)nc2n(-c3ccccc3)c3ccccc3nc-2c1=O | 3.85 µM (inactive) | 35.7 µM (inactive) | 25.4 µM (inactive) | 31.7 µM (inactive) | 10.7 µM (inactive) | 15.7 | 20.6 µM (inactive) | 43.7 µM (inactive) | 16.3 µM (inactive) | 24.2 µM (inactive) | 12.7 µM (inactive) | 13.9 µM (inactive) | 12.6 µM (inactive) | 12.5 µM (inactive) | 17.5 µM (inactive) | – | – | – | – | –
2 | O=C1C=CC=C/C1=C1/SC(c2ccccc2)=C(O)N1c1ccccc1 | > 100 µM (inactive) | > 100 µM (inactive) | > 100 µM (inactive) | – | – | > 100 | > 100 µM (inactive) | > 100 µM (inactive) | > 100 µM (inactive) | > 100 µM (inactive) | > 100 µM (inactive) | – | > 100 µM (inactive) | > 100 µM (inactive) | > 100 µM (inactive) | > 100 µM (inactive) | > 100 µM (inactive) | – | – | –
3 | CC(C)OP(=O)(OC(C)C)c1nn(-c2ccc([N+](=O)[O-])cc2)c(=N)s1 | > 100 µM (inactive) | 60.4 µM (inactive) | > 100 µM (inactive) | > 100 µM (inactive) | 68.1 µM (inactive) | > 100 | > 100 µM (inactive) | > 100 µM (inactive) | > 100 µM (inactive) | > 100 µM (inactive) | > 100 µM (inactive) | > 100 µM (inactive) | > 100 µM (inactive) | > 100 µM (inactive) | > 100 µM (inactive) | – | > 100 µM (inactive) | – | – | –
4 | CC(C)(C)OC(=O)N1C2CCCC23O[C@@H]1c1cc2c(cc1C3=O)OCO2 (stereo partly drawn) | – | 39.6 µM (inactive) | 24.9 µM (inactive) | 23.6 µM (inactive) | 5.25 µM (inactive) | – | 41.2 µM (inactive) | 43.9 µM (inactive) | 25.6 µM (inactive) | 20.8 µM (inactive) | 6.24 µM (inactive) | 12.3 µM (inactive) | > 100 µM (inactive) | 9.57 µM (inactive) | 41.3 µM (inactive) | 24.5 µM (inactive) | 36.3 µM (inactive) | – | – | –
5 | CO[C@H]1C=C[C@@]23c4cc5c(cc4CO[C@]2(O)CN(C)[C@H]3C1)OCO5 | > 100 µM (inactive) | > 100 µM (inactive) | > 100 µM (inactive) | – | > 100 µM (inactive) | > 100 | > 100 µM (inactive) | > 100 µM (inactive) | > 100 µM (inactive) | > 100 µM (inactive) | > 100 µM (inactive) | > 100 µM (inactive) | > 100 µM (inactive) | > 100 µM (inactive) | > 100 µM (inactive) | – | > 100 µM (inactive) | > 100 µM (inactive) | > 100 µM (inactive) | > 100 µM (inactive)
6 | C=CCNC(=O)N(CCC)CCCCC(NC(C)=O)C(=O)NCc1ccccc1 (stereo not drawn) | > 100 µM (inactive) | > 100 µM (inactive) | > 100 µM (inactive) | > 100 µM (inactive) | > 100 µM (inactive) | > 100 | > 100 µM (inactive) | > 100 µM (inactive) | > 100 µM (inactive) | > 100 µM (inactive) | > 100 µM (inactive) | > 100 µM (inactive) | > 100 µM (inactive) | > 100 µM (inactive) | > 100 µM (inactive) | > 100 µM (inactive) | – | – | – | –
7 | C/C(=C1\N=C(c2ccccc2)OC1=O)c1ccccc1 | > 100 µM (inactive) | > 100 µM (inactive) | > 100 µM (inactive) | > 100 µM (inactive) | > 100 µM (inactive) | > 100 | – | > 100 µM (inactive) | > 100 µM (inactive) | > 100 µM (inactive) | > 100 µM (inactive) | > 100 µM (inactive) | > 100 µM (inactive) | > 100 µM (inactive) | > 100 µM (inactive) | – | > 100 µM (inactive) | > 100 µM (inactive) | > 100 µM (inactive) | > 100 µM (inactive)
8 | O=C1CN2C(Cl)(Cl)C2(c2ccccc2)c2cc(Cl)ccc2N1CC1CC1 (stereo not drawn) | 19.9 µM (inactive) | 26 µM (inactive) | 25.2 µM (inactive) | 23.4 µM (inactive) | – | 19.3 | 20.8 µM (inactive) | 31.8 µM (inactive) | 17.3 µM (inactive) | 9.46 µM (inactive) | – | 20.1 µM (inactive) | 30.3 µM (inactive) | 23.3 µM (inactive) | 19.1 µM (inactive) | 18.7 µM (inactive) | 18.3 µM (inactive) | – | – | –
9 | COc1ccc(C(CC(=O)c2ccc(O)cc2)C(C(=O)c2ccc(O)cc2)C(c2ccc(OC)cc2)C2C(=O)NC(=S)NC2=O)cc1 (stereo not drawn) | 16 µM (inactive) | 17.5 µM (inactive) | – | 26.1 µM (inactive) | 32.1 µM (inactive) | 21.2 | 24.7 µM (inactive) | – | – | 20 µM (inactive) | 17.7 µM (inactive) | 20.8 µM (inactive) | 18.8 µM (inactive) | – | 24.5 µM (inactive) | – | 16.8 µM (inactive) | 21.8 µM (inactive) | 14.5 µM (inactive) | 14.9 µM (inactive)
10 | O=C(N/N=C/C=C/c1ccccc1)[C@H](O)[C@@H](O)C(=O)N/N=C/C=C/c1ccccc1 | > 100 µM (inactive) | > 100 µM (inactive) | > 100 µM (inactive) | – | > 100 µM (inactive) | > 100 | > 100 µM (inactive) | > 100 µM (inactive) | > 100 µM (inactive) | > 100 µM (inactive) | > 100 µM (inactive) | – | – | – | > 100 µM (inactive) | > 100 µM (inactive) | > 100 µM (inactive) | – | – | –
11 | NC1CCCCC1 | > 56.2 µM (inactive) | – | > 562 µM (inactive) | 223 µM (inactive) | 135 µM (inactive) | 470 | > 562 µM (inactive) | 489 µM (inactive) | > 562 µM (inactive) | – | 255 µM (inactive) | – | 265 µM (inactive) | – | 313 µM (inactive) | 347 µM (inactive) | 193 µM (inactive) | – | 199 µM (inactive) | –
12 | COc1cc2ccc(CC(N)=O)cc2cc1OC | > 100 µM (inactive) | > 100 µM (inactive) | > 100 µM (inactive) | > 100 µM (inactive) | – | > 100 | > 100 µM (inactive) | > 100 µM (inactive) | > 100 µM (inactive) | > 100 µM (inactive) | > 100 µM (inactive) | > 100 µM (inactive) | > 100 µM (inactive) | – | > 100 µM (inactive) | > 100 µM (inactive) | > 100 µM (inactive) | – | – | –
13 | Clc1ccc(-c2nnc(-c3nsc4ccccc34)o2)cc1 | 71.8 µM (inactive) | 18.8 µM (inactive) | 17.5 µM (inactive) | 13.8 µM (inactive) | – | 47.8 | 36.6 µM (inactive) | 14.2 µM (inactive) | – | – | 54 µM (inactive) | 47.2 µM (inactive) | 14.2 µM (inactive) | – | 15.2 µM (inactive) | 38.3 µM (inactive) | 18.2 µM (inactive) | – | – | –
14 | CC12CCCCC1C(=O)C2(Cl)Cl (stereo not drawn) | – | 2.18 µM (inactive) | 2.39 µM (inactive) | 1.6 µM (inactive) | 1.76 µM (inactive) | 3.35 | 2.98 µM (inactive) | 2.76 µM (inactive) | 1.4 µM (inactive) | 1.66 µM (inactive) | 2.2 µM (inactive) | 2.03 µM (inactive) | 3.49 µM (inactive) | 2.15 µM (inactive) | 2.21 µM (inactive) | 3.72 µM (inactive) | 1.69 µM (inactive) | – | – | –
15 | CC(=O)[C@H]1CCC2[C@@H]3CC=C4C(O)C(OS(=O)(=O)O)CC[C@]4(C)C3CC[C@@]21C (stereo partly drawn) | > 100 µM (inactive) | > 100 µM (inactive) | > 100 µM (inactive) | > 100 µM (inactive) | > 31.6 µM (inactive) | > 100 | > 100 µM (inactive) | > 100 µM (inactive) | > 100 µM (inactive) | > 100 µM (inactive) | > 100 µM (inactive) | – | > 100 µM (inactive) | > 100 µM (inactive) | > 100 µM (inactive) | > 100 µM (inactive) | > 100 µM (inactive) | – | > 100 µM (inactive) | –
16 | COCCO [2-METHOXYETHANOL] | > 100 µM (inactive) | > 87.3 µM (inactive) | > 100 µM (inactive) | > 78.2 µM (inactive) | > 100 µM (inactive) | > 100 | > 100 µM (inactive) | > 100 µM (inactive) | > 100 µM (inactive) | > 100 µM (inactive) | > 100 µM (inactive) | – | > 100 µM (inactive) | > 100 µM (inactive) | > 100 µM (inactive) | > 100 µM (inactive) | > 100 µM (inactive) | – | > 100 µM (inactive) | –
17 | CC(=O)N/C(=C\c1ccc(Cc2nc3c([nH]2)C(=O)c2ccccc2C3=O)cc1)c1nc2c([nH]1)C(=O)c1ccccc1C2=O | > 100 µM (inactive) | > 100 µM (inactive) | > 100 µM (inactive) | > 100 µM (inactive) | > 100 µM (inactive) | – | > 100 µM (inactive) | > 100 µM (inactive) | > 100 µM (inactive) | > 100 µM (inactive) | – | > 100 µM (inactive) | > 100 µM (inactive) | > 100 µM (inactive) | 78.5 µM (inactive) | > 100 µM (inactive) | > 100 µM (inactive) | – | – | –
18 | CCN(CC)C(=O)c1cc(OC(C)C)ccc1-c1c(C)cc(OC(C)C)c(OC)c1OC | 63.7 µM (inactive) | 86.3 µM (inactive) | 60 µM (inactive) | > 100 µM (inactive) | 45.9 µM (inactive) | 46.9 | 61.4 µM (inactive) | 60.7 µM (inactive) | 44 µM (inactive) | – | 51.8 µM (inactive) | 79.4 µM (inactive) | 47.5 µM (inactive) | 84.5 µM (inactive) | 63 µM (inactive) | 43 µM (inactive) | 38.2 µM (inactive) | – | – | –
